Experimental data published in PubChem BioAssay (NCI).
Several values for one entry are separate records, joined by “and”; a condition that tells them apart may be missing. Equal entries are not always repeated.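 Protocol summary: plate cells (96-well), add compound at 5 concentrations, incubate 48 h, interpolate endpoints linearly. GI50 = concentration required for 50% inhibition of growth. TGI: concentration producing complete growth inhibition.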

Columns and labels:
Test in all cases: inhibition of tumour cell growth, NCI panel, 48 h
CAKI-1 renal = tested on: CAKI-1 renal
HCC-2998 colon = tested on: HCC-2998 colon
HL-60(TB) leukemia = tested on: HL-60(TB) leukemia
NCI-H226 lung = tested on: NCI-H226 lung
OVCAR-5 ovarian = tested on: OVCAR-5 ovarian
OVCAR-8 ovarian = tested on: OVCAR-8 ovarian
RPMI-8226 leukemia = tested on: RPMI-8226 leukemia
SF-295 CNS = tested on: SF-295 CNS
SR leukemia = tested on: SR leukemia
MDA-MB-231 breast = tested on: MDA-MB-231 breast

| SMILES | TGI (CAKI-1 renal) | TGI (HCC-2998 colon) | TGI (HL-60(TB) leukemia) | TGI (NCI-H226 lung) | TGI (OVCAR-5 ovarian) | TGI (OVCAR-8 ovarian) | TGI (RPMI-8226 leukemia) | TGI (SF-295 CNS) | TGI (SR leukemia) | TGI (MDA-MB-231 breast) | GI50 (CAKI-1 renal) | GI50 (MDA-MB-231 breast) | GI50 (OVCAR-5 ovarian) | GI50 (OVCAR-8 ovarian) | GI50 (RPMI-8226 leukemia) | GI50 (SF-295 CNS) | GI50 (SR leukemia) | GI50 (HCC-2998 colon) | GI50 (NCI-H226 lung) |
| --- | --- | --- | --- | --- | --- | --- | --- | --- | --- | --- | --- | --- | --- | --- | --- | --- | --- | --- | --- |
| O=C1C=CC(=O)C2=C1[C@@H](O)C1CC=CC3C(=O)O[C@@H]2C31 (some centres undefined) | 35.2 µM | 34.6 µM | 40.4 µM | > 75.1 µM | > 100 µM | > 71.3 µM | 57.7 µM | > 100 µM | > 100 µM |  |  |  |  |  |  |  |  |  |  |
| N/N=C(/C(=O)Nc1cccc(Cl)c1)C(C(=O)c1ccc(O)cc1O)C1OC(=O)c2ccccc21 (centres undefined) |  | > 100 µM | > 100 µM | > 100 µM | > 100 µM | > 100 µM | > 100 µM | > 100 µM | > 100 µM |  |  |  |  |  |  |  |  |  |  |
| CC(CN(C)C)/C(=N\Nc1ccccc1)c1ccccc1 (centres undefined) |  |  | 8.34 µM |  | 5.45 µM | > 100 µM | 67.6 µM | 0.358 µM | 23.1 µM |  |  |  |  |  |  |  |  |  |  |
| CSc1nnc(CCC(=O)Nc2c(C)cccc2C)o1 | > 100 µM | > 100 µM | > 100 µM | > 100 µM | > 100 µM | > 100 µM | > 100 µM | > 100 µM |  |  |  |  |  |  |  |  |  |  |  |
| C=C/C=C/NC(=O)OCc1ccccc1 | > 100 µM |  | > 100 µM |  | > 100 µM | > 100 µM | > 100 µM | > 100 µM | > 100 µM |  |  |  |  |  |  |  |  |  |  |
| COc1cc2c(cc1OC)[C@H](C)N1CCc3cc(OC)c(OC)cc3[C@@H]1C2 | > 100 µM | > 100 µM | > 100 µM | > 100 µM | > 100 µM | > 100 µM | > 100 µM | > 100 µM |  | > 100 µM |  |  |  |  |  |  |  |  |  |
| CC(=O)Nc1ccc(S(=O)(=O)N/N=C/CN2C(=O)c3ccccc3C2=O)cc1 | > 100 µM | > 100 µM | > 100 µM | > 100 µM |  | > 100 µM | > 100 µM | > 100 µM | > 100 µM |  |  |  |  |  |  |  |  |  |  |
| O=[N+]([O-])c1ccc(-n2nnc(C3=NCCN3)c2-c2ccccc2)cc1 | > 100 µM | > 100 µM | > 100 µM | > 100 µM | > 100 µM | > 100 µM | > 100 µM | > 100 µM | > 100 µM |  |  |  |  |  |  |  |  |  |  |
| C[C@H](OCc1ccccc1)C(=O)N1CCS(=O)(=O)N2CCC[C@@H]2C1=O | > 100 µM | > 100 µM | > 100 µM | > 100 µM | > 100 µM | > 100 µM | > 100 µM | > 100 µM | > 100 µM |  |  |  |  |  |  |  |  |  |  |
| O=C(O)CC[C@H](NC(=O)c1ccc(-n2nc3ccc(O)cc3nc2=O)cc1)C(=O)O |  | > 100 µM | > 100 µM |  | > 100 µM | > 100 µM | > 100 µM | > 100 µM | > 100 µM |  |  |  |  |  |  |  |  |  |  |
| CC[C@@]1(O)C(=O)OCc2c1cc1n(c2=O)Cc2cc3cc4c(cc3nc2-1)OCO4 |  | 0.208 µM |  | 0.00616 µM and < 0.0387 µM | 0.122 µM and 0.0372 µM | 0.369 µM |  | 0.025 µM | > 100 µM | > 100 µM |  |  |  |  |  |  |  |  |  |
| O=C(C/C(=N/O)C(=O)NC1=C(Cl)C(=O)c2ccccc2C1=O)CC(c1ccccc1)c1c(O)c2ccccc2oc1=O (centres undefined) | 32.6 µM | 25.6 µM |  | 20.3 µM | 32.8 µM | > 100 µM | > 100 µM | 22.8 µM | > 100 µM | 26.5 µM |  |  |  |  |  |  |  |  |  |
| C=C1C(O)C2C(=C(CC)C13CC3)C(=O)C(C)(C)C2OC (centres undefined) | > 100 µM |  |  |  | > 100 µM | > 100 µM | 68 µM | > 100 µM | 68 µM | > 100 µM | 76.5 µM | 87.5 µM | > 100 µM | 53.1 µM | 20.6 µM | > 100 µM | 23.5 µM |  |  |
| C=C1CC2OC(=O)C(=C)C2C(O)C2C(=C)CCC12 (centres undefined) | 19.7 µM | 22.2 µM | 6.32 µM | 35.5 µM | 24.7 µM | 18 µM | 14.3 µM | 22.8 µM | 14 µM |  |  |  |  |  |  |  |  |  |  |
| OC1(C23CC4CC(CC(C4)C2)C3)CSCC1(O)C12CC3CC(CC(C3)C1)C2 (centres undefined) | > 100 µM | > 100 µM | > 10 µM | > 100 µM |  | > 100 µM | > 100 µM | > 100 µM | > 100 µM |  |  |  |  |  |  |  |  |  |  |
| C/C(O)=C(/C=N/C(=S)Nc1ccc(S(N)(=O)=O)cc1)C(=O)Nc1ccccc1C | > 100 µM | > 100 µM | 42.8 µM | > 100 µM | > 100 µM | > 100 µM | 97.3 µM | > 100 µM |  | > 100 µM |  |  |  |  |  |  |  |  |  |
| O=C1C(Nc2ccc(Cl)cc2)=C(I)C(=O)c2ncccc21 | 1.54 µM | 3.74 µM |  | 3.03 µM | 3 µM | 3.12 µM | 5 µM | 19.6 µM | 2.28 µM | 2.7 µM | 0.327 µM | 1.31 µM | 1.58 µM | 1.51 µM | 1.33 µM | 6.79 µM | 0.301 µM | 1.77 µM | 1.52 µM |
| O=C1C(c2ccccc2)=C(O)c2cccc3cccc1c23 | > 100 µM | > 100 µM | > 100 µM | > 100 µM | > 100 µM | > 100 µM | > 100 µM | > 100 µM | > 100 µM |  |  |  |  |  |  |  |  |  |  |
| COc1c(O)c2c3c(cc(C)cc3c1C(C)C)OC2 |  | > 100 µM | > 100 µM | > 100 µM | > 100 µM | > 100 µM | > 100 µM | > 100 µM | > 100 µM |  |  |  |  |  |  |  |  |  |  |
| COc1ccc2c(c1)C(=O)c1ccc(OC)cc1C2=S |  | > 100 µM | > 100 µM | > 100 µM | > 100 µM | > 100 µM | > 100 µM | > 100 µM | > 100 µM |  |  |  |  |  |  |  |  |  |  |
| Cc1ccccc1C1OC(=O)c2ccc3ccccc3c21 (centres undefined) | 88.4 µM | 12 µM | 8.01 µM | 12.2 µM | > 31.6 µM | 12.8 µM | 5.43 µM | > 31.6 µM | 7.96 µM |  |  |  |  |  |  |  |  |  |  |
| CCOC(C[C@H](O[Si](C)(C)C(C)(C)C)[C@H]1COC(=S)S1)OCC |  | > 100 µM | > 100 µM | > 100 µM |  | > 100 µM | > 100 µM | > 100 µM | > 100 µM |  |  |  |  |  |  |  |  |  |  |
| COc1cc2c[n+](C)c3c4cc(OC)c(OC(C)C)cc4ccc3c2cc1OC | > 100 µM | > 100 µM | 91.9 µM | > 100 µM | > 100 µM | > 100 µM | > 100 µM | > 100 µM | > 100 µM |  |  |  |  |  |  |  |  |  |  |
